# From US20100092443A1, “NOVEL COMBINATIONS OF NITROGENATED HETEROCYCLIC ANTIBACTERIAL COMPOUNDS WITH OTHER ANTIBACTERIAL COMPOUNDS AND THE USE OF SAME AS DRUGS” (priority 2008, published 2010)
# Structures can show the parent of a compound that is named as a salt.
# Key:
# Assay type in all cases: cell-based
# [1] = tested on: E. aerogenes; experiment: MIC, dilutions in liquid medium, alone and combined with NXL105; conditions: E. aerogenes EAR2; Case-R + FEP-R
# [2] = tested on: E. cloacae; experiment: as above
# Description: (§1) In vitro activity, method of dilutions in liquid medium:
# (§2) A series of test 96-well microtiter plates are prepared in which the same quantity of sterile nutritive medium is distributed. […] After 24 h of incubation in a 37° C. oven, growth inhibition is evaluated by transillumination, which makes it possible to determine the minimum inhibitory concentrations (MICS) expressed in μg/ml.
# [3] = tested on: K. pneumoniae; experiment: as above
# Description: as §1, §2
# [4] = tested on: C. freundii; experiment: as above
# [5] = tested on: K. oxytoca; experiment: as above
# [6] = tested on: E. coli; experiment: microbe, parasite or virus in culture
# Description: as §1, §2
# [7] = tested on: Pseudomonas aeruginosa; experiment: MIC, dilutions in liquid medium, alone and combined with NXL105
# Description: as §1
# A series of test 96-well microtiter plates are prepared in which the same quantity of sterile nutritive medium is distributed. Increasing quantities of the compound to be studied, namely the antibacterial compound alone and the inventive combination with the compound of formula (I) of example 1, are distributed in each plate in the respective proportions 2:1 and 4:1, and then each plate is inoculated with a bacterial strain of Pseudomonas aeruginosa. After 24 h of incubation in a 37° C. oven, growth inhibition is evaluated by transillumination, which makes it possible to determine the minimum inhibitory concentrations (MICS) expressed in μg/ml.
smiles,measurement,setting,value
"Cn1ncc2c1[C@@H](CN)N1C[C@H]2N(OS(=O)(=O)O)C1=O (relative stereo) [NXL105, Sodium and Trifluoroacetate Salts of trans 8-(aminomethyl)-4,8-dihydro-1-methyl-5-(sulphooxy)-4,7-methano-7H-pyrazolo[3,4-e][1,3]diazepin-6(5H)-one]",MIC,[1],>32 µg/mL
same,MIC,"[2]; E. cloacae 7506, KPC-2 + TEM-1 + KLUC-2",32 µg/mL
same,MIC,"[2]; E. cloacae (no alias), AmpC",32 µg/mL
same,MIC,"[2]; E. cloacae, AmpC",>32 µg/mL
same,MIC,"[3]; K. pneumoniae 26, SHV-5",32 µg/mL
same,MIC,"[3]; K. pneumoniae 60, SHV-2 + TEM-2 + PER",32 µg/mL
same,MIC,"[3]; K. pneumoniae 157, SHV-5 + TEM-26",>32 µg/mL
same,MIC,"[3]; K. pneumoniae 181, SHV-5 + TEM-10",>32 µg/mL
same,MIC,"[3]; K. pneumoniae 236, SHV-5 + TEM-10",>32 µg/mL
same,MIC,"[3]; K. pneumoniae 238, SHV-2 + TEM-12 + CTX-M-2",>32 µg/mL
same,MIC,"[3]; K. pneumoniae 243, SHV-5 + TEM-63",>32 µg/mL
same,MIC,"[3]; K. pneumoniae 253, SHV-2 + TEM-12 + CTX-M-2",>32 µg/mL
same,MIC,"[3]; K. pneumoniae 427, SHV-1 + TEM-1B + CTX-M-3",>32 µg/mL
same,MIC,"[3]; K. pneumoniae 441, SHV-1 + TEM-2 + PER",>32 µg/mL
same,MIC,"[3]; K. pneumoniae 444, SHV-5 + TEM-2 + PER",>32 µg/mL
same,MIC,"[3]; K. pneumoniae 449, SHV-1 + TEM-2 + PER",32 µg/mL
same,MIC,"[3]; K. pneumoniae 465, TEM-1B + CTX-M-2",>32 µg/mL
same,MIC,"[3]; K. pneumoniae 1734, FOX-3 + TEM-1",>32 µg/mL
same,MIC,"[3]; K. pneumoniae 9701, CMY-4 + TEM-1",>32 µg/mL
same,MIC,"[3]; K. pneumoniae ATCC 700603, SHV-18",>32 µg/mL
same,MIC,"[3]; K. pneumoniae CL5761, KPC-3",>32 µg/mL
same,MIC,"[3]; K. pneumoniae CL5762, KPC-3",>32 µg/mL
same,MIC,"[3]; K. pneumoniae CL5763, KPC-3",>32 µg/mL
same,MIC,"[3]; K. pneumoniae KOL, MOX-2 + SHV-5 + TEM-1",>32 µg/mL
same,MIC,"[3]; K. pneumoniae KP04, CTX-M-14",>32 µg/mL
same,MIC,"[3]; K. pneumoniae Patient 1BHR, VIM-4 + CTX-M-15 = CMY-4 + TEM-1",16 µg/mL
same,MIC,"[3]; K. pneumoniae Patient F, VIM-1 + SHV-5",>32 µg/mL
same,MIC,"[3]; K. pneumoniae SLK54, ACC-1 + TEM-1",>32 µg/mL
same,MIC,"[3]; K. pneumoniae TN58467, DHA-1 + SHV-2a + TEM-1",>32 µg/mL
same,MIC,"[3]; K. pneumoniae Tunisie clone K1, CTX-M-16 + OXA-1",>32 µg/mL
same,MIC,"[3]; K. pneumoniae Tunisie clone K4, CTX-M-15 + TEM-1 + OXA-1",16 µg/mL
same,MIC,"[3]; K. pneumoniae VA8, KPC-3",>32 µg/mL
same,MIC,"[3]; K. pneumoniae VAKP, KPC-2",>32 µg/mL
same,MIC,"[3]; K. pneumoniae YC, KPC-2",>32 µg/mL
same,MIC,"[4]; C. freundii (no alias), AmpC + TEM-1",16 µg/mL
same,MIC,"[4]; C. freundii (no alias, table row r121), AmpC",16 µg/mL
same,MIC,"[4]; C. freundii (no alias, table row r122), AmpC",32 µg/mL
same,MIC,"[4]; C. freundii (no alias, table row r123), AmpC",>32 µg/mL
same,MIC,"[4]; C. freundii (no alias, table row r125), AmpC",32 µg/mL
same,MIC,"[5]; K. oxytoca 1431, TEM-129",32 µg/mL
same,MIC,"[5]; K. oxytoca 16944, OXY-2, TEM-1",>32 µg/mL
same,MIC,"[6]; E. coli 2138, KPC-2 + TEM-1",>32 µg/mL
same,MIC,"[6]; E. coli (no alias), CTX-M-15 + TEM-1 + OXA-1",>32 µg/mL
same,MIC,"[6]; E. coli (no alias), Cephalosporinase",>32 µg/mL
same,MIC,"[6]; E. coli (no alias), SHV-4",>32 µg/mL
same,MIC,"[6]; E. coli (no alias), TEM-3",>32 µg/mL
same,MIC,"[6]; E. coli IND, VEB-1 + CMY-2",16 µg/mL
same,MIC,"[6]; E. coli TN06, CTX-M-2 + TEM-1",32 µg/mL
same,MIC,"[6]; E. coli TN13, CTX-M-14 + CMY-2 + TEM-1",32 µg/mL
same,MIC,"[6]; E. coli Tunisie clone E4, CTX-M-16 + TEM-1",>32 µg/mL
same,MIC,[7]; P. aeruginosa 391HG2,1.000 µg/mL
same,MIC,[7]; P. aeruginosa 391HG21,0.500 µg/mL
same,MIC,[7]; P. aeruginosa 391HG38,32.000 µg/mL
same,MIC,[7]; P. aeruginosa 391HG39,4.000 µg/mL
same,MIC,[7]; P. aeruginosa 391HG58,1.000 µg/mL
same,MIC,[7]; P. aeruginosa 391HG118,0.125 µg/mL
same,MIC,[7]; P. aeruginosa 391HG123,>32 µg/mL
same,MIC,[7]; P. aeruginosa 391HG158,32.000 µg/mL
same,MIC,[7]; P. aeruginosa 391HG271,32.000 µg/mL
same,MIC,[7]; P. aeruginosa 391HG329,2.000 µg/mL
same,MIC,[7]; P. aeruginosa 391K767,1.000 µg/mL
same,MIC,[7]; P. aeruginosa 391K1455,2.000 µg/mL
same,MIC,[7]; P. aeruginosa 391K1523,2.000 µg/mL
same,MIC,[7]; P. aeruginosa 391K1525,4.000 µg/mL
same,MIC,[7]; P. aeruginosa 391K1536,2.000 µg/mL
same,MIC,[7]; P. aeruginosa 391K2376,2.000 µg/mL
same,MIC,[7]; P. aeruginosa 391K2379,4.000 µg/mL
same,MIC,[7]; P. aeruginosa 391K2415,2.000 µg/mL
same,MIC,[7]; P. aeruginosa 391KB9,0.250 µg/mL
same,MIC,[7]; P. aeruginosa 391KB14,1.000 µg/mL
same,MIC,[7]; P. aeruginosa 391KB21,2.000 µg/mL
same,MIC,[7]; P. aeruginosa 391KB33,0.500 µg/mL
same,MIC,[7]; P. aeruginosa 391KB38,1.000 µg/mL
same,MIC,[7]; P. aeruginosa 391KB62,4.000 µg/mL
same,MIC,[7]; P. aeruginosa 391KB68,0.500 µg/mL
same,MIC,[7]; P. aeruginosa 391KB90,8.000 µg/mL
same,MIC,[7]; P. aeruginosa 391KB91,0.500 µg/mL
same,MIC,[7]; P. aeruginosa 391KB99,0.500 µg/mL
same,MIC,[7]; P. aeruginosa 391KB103,0.500 µg/mL
same,MIC,[7]; P. aeruginosa 391KB105,1.000 µg/mL
same,MIC,[7]; P. aeruginosa 391KB106,2.000 µg/mL
same,MIC,[7]; P. aeruginosa 391KB107,1.000 µg/mL
same,MIC,[7]; P. aeruginosa 391KB114,4.000 µg/mL
same,MIC,[7]; P. aeruginosa 391KB127,0.500 µg/mL
same,MIC,[7]; P. aeruginosa 391KB135,1.000 µg/mL
same,MIC,[7]; P. aeruginosa 391KB136,0.500 µg/mL
same,MIC,[7]; P. aeruginosa 391KB137,0.500 µg/mL
same,MIC,[7]; P. aeruginosa 391KB138,0.500 µg/mL
same,MIC,[7]; P. aeruginosa 391KB139,2.000 µg/mL
same,MIC,[7]; P. aeruginosa 391KB140,2.000 µg/mL
same,MIC,[7]; P. aeruginosa 391KB141,4.000 µg/mL
same,MIC,[7]; P. aeruginosa 391KB142,1.000 µg/mL
same,MIC,[7]; P. aeruginosa 391KB143,0.500 µg/mL
same,MIC,[7]; P. aeruginosa 391KB144,16.000 µg/mL
same,MIC,[7]; P. aeruginosa 391QBR2,>32 µg/mL
same,MIC,[7]; P. aeruginosa 391QBR3,2.000 µg/mL
same,MIC,[7]; P. aeruginosa 391QBR4,2.000 µg/mL
same,MIC,[7]; P. aeruginosa 391QBR5,1.000 µg/mL
same,MIC,[7]; P. aeruginosa 391QBR7,2.000 µg/mL
same,MIC,[7]; P. aeruginosa 391QBR8,2.000 µg/mL
same,MIC,[7]; P. aeruginosa 391QBR9,2.000 µg/mL
same,MIC,[7]; P. aeruginosa 391QBR10,4.000 µg/mL
same,MIC,[7]; P. aeruginosa ATCC 27853,0.060 µg/mL
same,MIC,[7]; P. aeruginosa C3719,>32 µg/mL
same,MIC,[7]; P. aeruginosa PA2192,0.125 µg/mL
